Laboratory results published in EP4428121A1, “MODULATORS OF SORTILIN ACTIVITY” (Vesper Bio Aps, priority 2023, dated 2024).

Experiments:
Human (6-His)Sortilin = target: T1, Human (6-His)Sortilin (Homo sapiens, UniProt Q99523); assay: Human Sortilin GCI (Grating-Coupled Interferometry) binding assay; details: Creoptix WAVE-RAPID, single concentration (usually 1 µM, 10 µM or 100 µM), immobilised Human (6-His)Sortilin, 1:1 kinetic binding model
T1 construct: purchased RnD Systems
T1 sequence (Q99523 78-755 limits assumed): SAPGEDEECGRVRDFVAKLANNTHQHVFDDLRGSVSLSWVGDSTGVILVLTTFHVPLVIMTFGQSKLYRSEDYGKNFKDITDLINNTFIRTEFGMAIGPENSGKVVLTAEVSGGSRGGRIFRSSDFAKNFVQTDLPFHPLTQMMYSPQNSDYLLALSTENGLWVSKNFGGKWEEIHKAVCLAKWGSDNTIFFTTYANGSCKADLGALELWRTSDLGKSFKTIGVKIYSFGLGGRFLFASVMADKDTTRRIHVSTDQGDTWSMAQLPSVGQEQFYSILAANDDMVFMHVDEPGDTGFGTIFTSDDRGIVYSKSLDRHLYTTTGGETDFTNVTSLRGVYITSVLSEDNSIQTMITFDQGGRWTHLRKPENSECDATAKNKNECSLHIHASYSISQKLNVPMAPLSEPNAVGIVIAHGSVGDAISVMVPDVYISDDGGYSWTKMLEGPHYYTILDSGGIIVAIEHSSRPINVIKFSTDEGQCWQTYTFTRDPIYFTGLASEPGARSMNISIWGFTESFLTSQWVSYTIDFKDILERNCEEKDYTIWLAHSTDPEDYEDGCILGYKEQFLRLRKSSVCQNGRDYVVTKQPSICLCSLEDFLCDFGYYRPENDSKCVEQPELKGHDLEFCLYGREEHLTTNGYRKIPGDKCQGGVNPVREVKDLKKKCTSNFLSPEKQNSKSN

h-Sortilin = target: T2, h-Sortilin (Homo sapiens, UniProt Q99523); assay: Neurotensin scintillation proximity assay (SPA); details: displacement of [3H]-neurotensin binding to h-Sortilin; 150 nM 6his-Sortilin, 5 nM [3H]-Neurotensin; average of at least 2 determinations
T2 sequence (Q99523 78-831): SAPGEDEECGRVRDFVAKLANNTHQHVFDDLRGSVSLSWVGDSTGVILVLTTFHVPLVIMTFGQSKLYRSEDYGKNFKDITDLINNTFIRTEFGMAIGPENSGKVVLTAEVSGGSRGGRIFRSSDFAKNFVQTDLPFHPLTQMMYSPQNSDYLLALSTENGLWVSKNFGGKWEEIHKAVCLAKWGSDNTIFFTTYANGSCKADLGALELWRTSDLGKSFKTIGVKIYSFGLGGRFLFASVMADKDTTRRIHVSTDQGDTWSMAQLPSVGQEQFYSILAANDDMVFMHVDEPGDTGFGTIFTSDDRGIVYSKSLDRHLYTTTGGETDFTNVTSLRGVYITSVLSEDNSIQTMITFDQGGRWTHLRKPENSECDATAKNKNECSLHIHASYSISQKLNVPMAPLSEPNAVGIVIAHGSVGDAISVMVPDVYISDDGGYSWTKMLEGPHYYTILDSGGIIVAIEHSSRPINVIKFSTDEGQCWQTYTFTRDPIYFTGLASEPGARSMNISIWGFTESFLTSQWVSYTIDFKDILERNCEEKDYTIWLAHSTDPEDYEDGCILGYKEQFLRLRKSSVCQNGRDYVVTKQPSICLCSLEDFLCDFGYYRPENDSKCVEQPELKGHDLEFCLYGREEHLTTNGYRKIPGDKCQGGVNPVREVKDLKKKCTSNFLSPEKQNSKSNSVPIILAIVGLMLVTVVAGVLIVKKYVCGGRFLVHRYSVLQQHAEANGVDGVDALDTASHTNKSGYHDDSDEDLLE
Method: NTS, which is a 13 amino acid neuropeptide, is a sortilin ligand.
Compound affinity was determined by measuring the displacement of [^3H]-neurotensin binding to h-Sortilin in SPA format. Total volume of 40 µl in 50 mM HEPES pH 7.4 assay buffer containing 100 mM NaCl, 2.0 mM CaCl2, 0.1% BSA and 0.1% Tween-20. Compound pre-incubation for 30 minutes at room temperature with 150 nM of 6his-Sortilin before 5 nM [3H]-Neurotensin and Ni chelate imaging beads (Perkin Elmer) were added, after 6 hours the plate was read on a ViewLux with 360 s exposure time. Dose-response evaluation of compounds was performed with 8 concentrations of drugs (covering 3 decades). IC50 values were calculated by nonlinear regression using the sigmoid concentration-response (variable slope) using CDD Vault software. All values reported are average of at least 2 determinations.

Row | Kd (Human (6-His)Sortilin) | IC50 (h-Sortilin) | SMILES
1 | 0.0541 µM | 1.83 µM | Cc1cccc2c(N[C@@H](CCC(C)(C)C)C(=O)O)ncnc12 [Example 26, (S)-5,5-dimethyl-2-(8-methyl-4-quinazolinylamino)hexanoic acid]
2 | 0.664 µM | 0.51 µM | Cc1cncc(N[C@@H](CCC(C)(C)C)C(=O)O)n1 [Example 27, (S)-5,5-dimethyl-2-(6-methyl-2-pyrazinylamino)hexanoic acid]
3 | 0.525 µM | 0.67 µM | CC(C)(C)CC[C@H](Nc1cncc(Oc2ccccc2)n1)C(=O)O [Example 28, (S)-5,5-dimethyl-2-(6-phenoxy-2-pyrazinylamino)hexanoic acid]
4 | 1.71 µM | 1.81 µM | CC(C)(C)CC[C@H](Nc1cccnc1)C(=O)O [Example 31, (S)-5,5-dimethyl-2-(3-pyridylamino)hexanoic acid]
